In patent US9649305B2, “PFKFB3 inhibitor and methods of use as an anti-cancer therapeutic” (ADVANCED CANCER THERAPEUTICS, LLC, priority 2012, dated 2017):

Legend:
[1] = test system: MiaPaCa-2; test: Cancer cell proliferation, MTT assay; assay type: cell-based; conditions: Homo sapiens, MIA PaCa-2; MiaPaCa-2, MTT assay, 48 hours
Procedure: (§1) The ability of PFK-158 to kill or inhibit the proliferation of cancer cells was measured using either the MTT assay, the alamarBlue® assay (Invitrogen, Grand Island, N.Y.), or the CellTiter Glo™ assay (Promega, Madison, Wis.) using 48 or 72 hours exposure.
(§2) Cells of the desired tumor cell line were plated at 2×10^5 cells/ml in 96 well plates. Twice the indicated concentrations of the compounds of the invention were added to cells the following day in an equal volume of media. 72 hours later, cells were lysed and subjected to ATP determination using the CellTiter-Glo™ Luminescent Cell Viability Assay kit. Experiments were performed in triplicate. When using the MTT assay or the alamarBlue® assay, the experimental conditions are essentially similar; at the end of the incubation period, 20 microliters of the MTT solution is added per well and the samples are incubated for an additional four hours, rinsed, and absorbance at 570 nm was measured. Results for the inhibition of cell proliferation are reported as the IC50 (the concentration resulting in 50% inhibition of proliferation of the cell population) and are listed in Table 5 below. Cell lines include lung, colon, prostate, breast, ovarian, and pancreatic cancer lines.

[2] = test system: BT474; test: Cancer cell proliferation, MTT assay; assay type: cell-based; conditions: Homo sapiens, BT-474, 48 hours
Procedure: as §1, §2

[3] = test system: A498; test: Cancer cell proliferation, MTT assay; assay type: cell-based; conditions: Homo sapiens, 48 hours
Procedure: as §1, §2

[4] = test system: SW620; test: Cancer cell proliferation, MTT assay; assay type: cell-based; conditions: Homo sapiens, SW-620, 48 hours
Procedure: as §1, §2

[5] = test system: SKOV-3; test: Cancer cell proliferation, MTT assay; assay type: cell-based; conditions: Homo sapiens, SK-OV-3; SKOV-3, MTT assay, 48 hours
Procedure: as §1, §2

[6] = test system: SK-BR-3; test: Cancer cell proliferation, MTT assay; assay type: cell-based; conditions: Homo sapiens; SK-BR-3, MTT assay, 48 hours
Procedure: as §1, §2

[7] = test system: HT29; test: Cancer cell proliferation, MTT assay; assay type: cell-based; conditions: Homo sapiens, HT-29, 48 hours
Procedure: as §1, §2

[8] = test system: A549; test: Cancer cell proliferation, MTT assay; assay type: cell-based; conditions: Homo sapiens, 48 hours
Procedure: as §1, §2

[9] = test system: HCT116; test: Cancer cell proliferation, MTT assay; assay type: cell-based; conditions: Homo sapiens, HCT-116, 48 hours
Procedure: as §1, §2

[10] = test system: PC-3; test: Cancer cell proliferation, MTT assay; assay type: cell-based; conditions: Homo sapiens; PC-3, MTT assay, 48 hours
Procedure: as §1, §2

[11] = In vitro stability in human liver microsomes; assay type: in vitro ADME
[12] = test system: lung cancer model, pancreatic cancer model, colon cancer model; test: Tumor growth inhibition in mouse cancer models
Procedure: Studies determining efficacy of PFK-158 at inhibiting tumor growth in mouse cancer models were performed. These studies were carried out with PFK-158 alone and in combination with compounds currently used in the treatment of cancer patients. Studies were performed in a lung cancer model, a pancreatic cancer model, and in a colon cancer model.
Efficacy of PFK-158 was studied in vivo in tumor models. Several tumor models were used in these studies (the Lewis lung carcinoma, or LLC model, the CT-26 colon carcinoma tumor model, or the BXPC3 pancreatic cancer model). The experimental protocol for the LLC study is described below. Subsequent to subcutaneous inoculation of tumor cells, tumors started to develop and once tumors reached the desired volume of 100-125 mm^3 on average, treatment was initiated. Tumor volume was monitored in both groups and the average for both the control and treatment groups was measured three times a week, as well as body weights.
Briefly, normal female C57BL/6 mice at 7-8 weeks of age were used for the study. Mice were housed in microisolator housing, with food and water provided as libitum, and quarantined for 4 days prior to the initiation of the study. LLC cells were maintained in a monolayer culture in DMEM medium supplemented with 10% heat inactivated fetal calf serum, 100 U/ml penicillin and 100 μg/ml streptomycin, and L-glutamine (2 mM) at 37° C. in an atmosphere of 5% CO2 in air. The tumor cells were routinely sub-cultured twice a week. The cells growing in an exponential phase were harvested and counted for tumor inoculation. Each mouse was inoculated subcutaneously at the right flank with the LLC tumor cells (3×10^5) in 0.1 ml of PBS for tumor development. When athymic nude mice were used, as for the BxPC3 model, then the strain of mice is slightly different. Furthermore, the use of Matrigel supports tumor development, meaning that cells are suspended in 100 μl of a mixture of medium/Matrigel (1:1) and are then subcutaneously implanted in the right flank region. Animals were monitored for tumor growth daily after cell implantation. When tumor volumes reached approximately 100-125 mm^3, mice were randomized into groups of 8 mice each using only mice having tumor volumes closest to the mean value. Tumor volumes were measured using the formula V=L×W×H×π/6, where L and W represent the longer and shorter diameters of the tumor and H represents the height of the tumor. Treatment began following randomization. PFK-158 was administered IP at a dose of 60 mg/kg on days 1, 3, 5, 7, 9, 11, and 13.
Similar protocols were used for the other studies using different models; differences included the use of Balbc/nude mice; administering larger number of cancer cells; and use of Matrigel.

[13] = Photoisomerization in formulation; assay type: physicochemical; conditions: phospho-lipidic aqueous emulsion or emulsifier-free, solvent-free aqueous solution
Text: Further, the solubility properties of PFK-158 are such that, if required, the compound can be administered using either a phospho-lipidic aqueous based emulsion, or in an emulsifier-free, solvent-free aqueous based solution.

[14] = Repeat-dose toxicology study in SD rats; assay type: in vivo
Procedure: Toxicology studies were performed in SD rats comparing PFK-158 and PFK-015 using a repeat dosing schedule. The studies were performed at dose levels ranging from 5 to 30 mg/kg and animals were monitored for weight loss, behavior, clinical signs, and clinical chemistries. At the end of the study, gross pathology and histopathology were performed.

[15] = Maximum tolerated dose study; assay type: in vivo; conditions: 3 days on/3 days off schedule
Procedure: Several maximum tolerated dose studies and toxicology studies were performed and the results indicated PFK-158 is safer than PFK-015. Studies were performed in C57/B16 mice and SD rats.

## O=C(/C=C/c1ccc2ccc(C(F)(F)F)cc2n1)c1ccncc1 [PFK-158, (E)-1-(pyridyn-4-yl)-3-(7-(trifluoromethyl)quinolin-2-yl)-prop-2-en-1-one]
[1]
  IC50: 3.35 µM
[2]
  IC50: 1.95 µM
[3]
  IC50: 3.51 µM
[4]
  IC50: 2.67 µM
[5]
  IC50: 2.62 µM
[6]
  IC50: 1.6 µM
[7]
  IC50: 4.13 µM
[8]
  IC50: 8.65 µM
[9]
  IC50: 3.4 µM
[10]
  IC50: 1.18 µM
[11]
  Percent metabolized after 1 hr: 37%
[12]; lung, pancreatic and colon cancer mouse models
  tumor growth inhibition: 50% to 70
[12]; mouse, in vivo
  body weight loss: without noticeable body weight loss or death
[12]; tumor models, FIGS. 6-8
  effect of combination with other chemotherapeutic agents: additive or synergistic effect
[13]
  photoisomerization in solution: does not, in the formulation mentioned above, undergo a rapid photoisomerization
[14]; rat, in vivo, repeat dosing schedule
  MTD: > 30 mg/kg
[14]; repeat dosing, PFK-158 5 to 30 mg/kg, PFK-015 12 and 25 mg/kg
  Adverse observations in toxicology study: no adverse observations
[15]; C57/B16, mouse, in vivo, read-out: MTD
  MTD: > 45 mg/kg
[15]; Table 4, body weight loss superior to 10% or death
  MTD: Not reached, >45 mg/kg
